In US20230413857A1, “COMPOSITIONS OF MICROORGANISMS AND METHODS OF USING SAME” (The State of Israel, Ministry of Agriculture & Rural …, priority 2020, published 2023):

Tests used:
[1] = test system: Pythium aphanidermatum; experiment: Paper disk in-vitro bioactivity assay on PDA plates; type: cell-based; settings: PDA plate
[2] = test system: Aeromonas salmonicida; type: cell-based; settings: 200 μg
[3] = test system: Streptococcus iniae; type: cell-based; settings: 200 μg
[4] = test system: Phytophthora infestans; type: cell-based; settings: 200 μg on a paper disk, PDA plate
[5] = test system: Photobacterium damselae; type: cell-based; settings: 200 μg
[6] = test system: Achlya bisexualis; experiment: Paper disk in-vitro bioactivity assay on PDA plates; type: cell-based; settings: PDA plate
[7] = test system: Saprolegnia parasitica; experiment: 8-Nonenoic acid vs. Saprolegnia parasitica in Tilapia eggs bioassay test; type: in vivo, Tilapia (Oreochromis mossambicus) eggs; settings: S. parasitica plugs and 10 μg/ml, one week, 26° C.
Procedure: Tilapia (Oreochromis mossambicus) eggs, 3 days post fertilization, were collected from the hatchery at the department of fisheries in ARO the Volcani Center and brought to the lab. Eggs were rinsed with aquarium water. Eggs were introduced to 100 ml flasks (25 ml water in each flask), 6 eggs for each flask. Eggs were introduced with Saprolegnia parasitica plugs in the flask or with Saprolegnia parasitica plugs and 10 μg/ml 8-Nonenoic acid. Control eggs were not treated and/or supplemented. Flasks were incubated on a shaker under controlled conditions: 26° C., 95 rpm, and day light for a week.

[8] = test system: S. parasitica mycelia; experiment: Compound bioassays of 8-Nonenoic acid in liquid and solid media; type: cell-based, Saprolegnia parasitica; settings: for Concentration giving full inhibition of S. parasitica growth: 19° C., 3 days
Procedure: The inhibition activity of the compound 8-Nonenoic acid was examined in both liquid and solid media. For liquid assay, a plug of PDA harboring the S. parasitica mycelia was introduced to 1 ml of sterile double distilled water (DDW) with 10 μl of potato dextrose broth (PDB) and varying concentrations of 8-Nonenoic acid (0, 0.1, 0.5, 1, 2.5, 5, 7.5, 10, 20 μg/ml) in 48 well plate and incubated at 19° C. for 3 days. For solid assay, a plug of PDA harboring the S. parasitica mycelia was introduced to 50 mm PDA petri plates with varying concentrations of 8-Nonenoic acid (as described above) and incubated at 19° C. for 3 days. For both liquid and solid, mycelium growth radios was measured and S. parasitica plugs viability were evaluated by transferring them to fresh PDB/PDA and observing the growth developed within 3 days. All experiments were performed in triplicates.

Structure (SMILES)	Inhibition of the oomycete mycelium ([1]; 200 μg on a paper disk)	Inhibitory activity [2]	Inhibitory activity [3]	Inhibition of the oomycete mycelium [4]	Inhibitory activity [5]	Inhibition of the oomycete mycelium ([6]; 200 μg on a paper disk)	Inhibition of the oomycote mycelium ([1]; 100 μg on a paper disk)	Survival of Tilapia eggs [7]	Inhibition of S. parasitica growth ([8]; 0.1 g/ml in both water and agar)	Inhibition of S. parasitica growth ([8]; 0.5-2.5 μg/ml, agar phase)	Concentration at which the growth radius decreased ([8]; in agar) [µg/mL]	Concentration giving full inhibition of S. parasitica growth ([8]; in agar (solid assay)) [µg/mL]	Concentration giving full inhibition of S. parasitica growth ([8]; in water (liquid assay)) [µg/mL]	Ability to inhibit S. parasitica growth (screen of compounds identified from ABp5) ([8]; purchased GC/MS-identified compounds, FIG. 13A)	Viability of fully inhibited S. parasitica plugs ([8]; transferred to a new plate)	Inhibition of the oomycote mycelium ([6]; 100 μg on a paper disk)
CC(C)(c1ccccc1)c1ccc(O)cc1 [4-Cumylphenol]	showed inhibition	showed inhibitory activity	showed inhibitory activity	showed inhibition	showed inhibitory activity	showed inhibition										
C=CCCCCCCC(=O)O [8-Nonenoic acid]							showed inhibition	did survive	No inhibition	no inhibition	≥ 5	20	2.5	strong ability to inhibit	complete loss of viability	showed inhibition
